Reference: patent US4536397A, “Antibiotics, neoviridogriseins, and their method of production” (Sanraku-Ocean Co., Ltd., priority 1983, dated 1985)
Values after ≈ are worked out from the molar mass of the structure shown. Starred links: 1 amine or outer side, 2 acyl side, 3 side chain; linkers in the order of their positions; H or OH if unused. Positions of bridges follow the written chain, without caps; N, C: chain ends. Non-standard residues stand in square brackets, D forms with d. Residues, ends and D or L forms follow the SMILES beside them. ξ: configuration not given here. *: point of attachment. NMeLeu(3ξ-Me) = CN[C@H](C(=O)O)C(C)C(C)C; X1 = CC(C)C(C)C(C(=O)[*:2])N(C)[*:1]; Picolinoyl(3-OH) = O=C(c1ncccc1O)*; NMePhg = CN[CH](C(=O)O)c1ccccc1; Thr(3ξ) = CC(O)[C@H](N)C(=O)O; Abu = CC[C@H](N)C(=O)O; Sar = CNCC(=O)O

Columns and labels:
[1] = Growth promotion in chicks on rye diet, 11 days; type: in vivo; conditions: diet conc 100 ppm
Protocol: was tested in vivo by incorporation in the diet of growing chicks. One-day old cockerels, 15 birds per treatment were used. The chicks were maintained for 11 days on a feed containing about 55% rye grain, supplemented with vitamins, minerals, fat and protein sources. The high content of rye grain normally gives poor to moderate growth, and this diet is a standard one used for screening growth promoters and antibiotic feed additives. Penicillin (100 ppm) was used as a positive control. Feed/Gain ratio is grams feed consumed per gram of weight gained. Body weight ratio is the ratio of chick body weight at the end of the 11 day study to the initial body weight. The last column is the average gain per bird (in grams).

[2] = system: Mycoplasma agalactiae PG 2; test: MIC, dilution method, Mycoplasma; type: cell-based; conditions: Table 4; PPLO broth (Chanock's medium; Difco)
Protocol: (§1) The MIC were determined by the dilution method.
(§2) (2): PPLO broth (Chanock's medium; Difco)
(§3) was tested in vitro agains several Mycoplasma strains.

[3] = system: Mycoplasma pulmonis PG 22; test: MIC, dilution method, Mycoplasma; type: cell-based; conditions: Table 4; PPLO broth (Chanock's medium; Difco)
Protocol: as §1, §2, §3

Mycoplasma fermentans = test: MIC, dilution method, Mycoplasma; type: cell-based; conditions: Table 4; PPLO broth (Chanock's medium; Difco)
Protocol: as §1, §2, §3

Streptococcus pyogenes = test: MIC, tube dilution method; type: cell-based; conditions: BHI broth containing 10% horse blood
Pseudeomonas aeruginosa = test: MIC, tube dilution method; type: cell-based; conditions: BHI broth
Staphylococcus aureus [4] = test: MIC, tube dilution method; type: cell-based; conditions: BHI broth
[5] = system: Diplococcus pneumoniac type 1; test: MIC, tube dilution method; type: cell-based, Diplococcus pneumoniae; conditions: BHI broth containing 10% horse blood
Escherichia coli = test: MIC, tube dilution method; type: cell-based; conditions: BHI broth
[6] = system: Mycoplasma gallisepticum KP13; test: MIC, dilution method, Mycoplasma; type: cell-based; design: unit not given beside the values; conditions: Table 4; PPLO enrichment broth (Eiken)
Protocol: as §1
Medium (1): PPLO enrichment broth (Eiken, Japan)
as §3

Sarcina lutea = test: MIC, tube dilution method (incl. synergism with griseoviridin); type: cell-based; conditions: Table 1; BHI broth
Staphylococcus sp. = test: MIC, tube dilution method; type: cell-based; conditions: BHI broth
Candida albicans = test: MIC, tube dilution method; type: cell-based; conditions: malt extract-yeast extract medium
Staphylococcus aureus [7] = test: MIC repeated with a far lower dilution rate; type: cell-based; conditions: for MIC: far lower dilution rate, brain heart infusion broth
From the text: This MIC experiment was based on the two-fold dilutions. To differentiate neoviridogrisein II and viridogrisein in their antibiotic activity, the MIC determination was repeated with a far lower dilution rate.
Medium: brain heart infusion broth

Proteus vulgaris = test: MIC, tube dilution method; type: cell-based; conditions: BHI broth
Solubility in solvents = type: physicochemical; conditions: for solubility in organic solvents: methanol, ethanol, propanols, n-butanol, dioxane, acetates, ketones, benzene, toluene, chlorinated solvents, DMF, DMSO
[8] = system: Bacillus subtilis ATCC 6633; test: MIC, tube dilution method; type: cell-based; conditions: BHI broth
Salmonella gallinanum = test: MIC, tube dilution method; type: cell-based; conditions: BHI broth

Row | Compound | MIC (Streptococcus pyogenes) | MIC (Pseudeomonas aeruginosa) | MIC (Staphylococcus aureus [4]; strain 209P) | MIC (Staphylococcus aureus [4]; strain (BX-1633)(PC)r) | MIC (Staphylococcus aureus [4]; strain (EM)r) | MIC (Staphylococcus aureus [4]; strain (EM, CM, SM, PC, TC)r) | MIC (Staphylococcus aureus [4]; strain (EM, OM)r) | MIC (Staphylococcus aureus [4]; strain (PC, EM, NM)r) | MIC (Staphylococcus aureus [4]; strain (PC, TC, EM, LM)r 1) | MIC (Staphylococcus aureus [4]; strain (PC, TC, EM, LM)r 2) | MIC (Staphylococcus aureus [4]; strain (SM, STH)r) | MIC (Staphylococcus aureus [4]; strain (STH)r) | MIC (Staphylococcus aureus [4]; strain (TC, CP, PC)r) | MIC (Staphylococcus aureus [4]; strain (TC, EM, LM, CP)r) | MIC (Staphylococcus aureus [4]; strain Russell(PC)r) | MIC (Staphylococcus aureus [4]; strain Smith) | MIC [5] | MIC (Escherichia coli) | MIC (Sarcina lutea) | MIC (Staphylococcus sp.; Staphylococcus sp. (PC)r) | other results
1 | CC1(C)S[C@@H]2[C@H](NC(=O)Cc3ccccc3)C(=O)N2[C@H]1C(=O)O [Penicillin] |  |  |  |  |  |  |  |  |  |  |  |  |  |  |  |  |  |  |  |  | FEED/GAIN RATIO ([1]; 11 days, grams feed consumed per gram of weight gained): 1.197; AVG B.W.GAIN ([1]; average gain per bird, 11 days): 163.20 GMS; BODY WEIGHT RATIO ([1]; body weight at end of 11 days to initial): 5.012
2 | CC(C)CC1NC(=O)C(NC(=O)c2ncccc2O)C(C)OC(=O)C(c2ccccc2)N(C)C(=O)C(C)NC(=O)C(C(C)C(C)C)N(C)C(=O)CN(C)C(=O)C2CCCN2C1=O (stereo not shown) [NV II, neoviridogrisein II] ({Picolinoyl(3-OH)}-TLP[Sar][X1]A[NMePhg]; ester 1-C; configuration not given here) | 0.2 µg/mL (≈ 0.232 µM) | > 25 µg/mL | 0.1 µg/mL (≈ 0.116 µM) | 0.2 µg/mL (≈ 0.232 µM) | 0.4 µg/mL (≈ 0.463 µM) | 0.2 µg/mL (≈ 0.232 µM) | 0.4 µg/mL (≈ 0.463 µM) | 0.4 µg/mL (≈ 0.463 µM) | 6.25 µg/mL (≈ 7.24 µM) | 6.25 µg/mL (≈ 7.24 µM) | 0.2 µg/mL (≈ 0.232 µM) | 0.8 µg/mL (≈ 0.927 µM) | 0.2 µg/mL (≈ 0.232 µM) | 6.25 µg/mL (≈ 7.24 µM) | 0.2 µg/mL (≈ 0.232 µM) | 0.2 µg/mL (≈ 0.232 µM) | 0.4 µg/mL (≈ 0.463 µM) | > 25 µg/mL | 0.4 µg/mL | 0.4 µg/mL (≈ 0.463 µM) | MIC [2]: 0.39; MIC [3]: 0.78; MIC (Mycoplasma fermentans): < 0.05; MIC [6]: 0.025; MIC (Staphylococcus sp.; Staphylococcus sp.): 0.8 µg/mL (≈ 0.927 µM); MIC (Candida albicans): > 25 µg/mL; times more active than viridogrisein (Staphylococcus aureus [7]; from the MIC values of Table 2): 2-3 times; MIC (Staphylococcus aureus [7]; strain 209 P): 0.078 µg/mL (≈ 0.0904 µM); MIC (Staphylococcus aureus [7]; strain (EM, CM, SM, PC, TC)r): 0.125 µg/mL (≈ 0.145 µM); MIC (Staphylococcus aureus [7]; strain (TC, CP, PC)r): 0.094 µg/mL (≈ 0.109 µM); MIC (Staphylococcus aureus [7]; strain Bx-1633(PC)r): 0.125 µg/mL (≈ 0.145 µM); MIC (Staphylococcus aureus [7]; strain Russell(PC)r): 0.125 µg/mL (≈ 0.145 µM); MIC (Staphylococcus aureus [7]; strain Smith): 0.125 µg/mL (≈ 0.145 µM); MIC (Proteus vulgaris): > 25 µg/mL; solubility in organic solvents (Solubility in solvents): soluble; solubility in petroleum ether and hexane (Solubility in solvents): practically insoluble; solubility in water and ethyl ether (Solubility in solvents): hardly soluble; MIC [8]: 0.4 µg/mL (≈ 0.463 µM); MIC (Salmonella gallinanum): > 25 µg/mL
3 | CC[C@@H]1NC(=O)[C@H](C(C)C(C)C)N(C)C(=O)CN(C)C(=O)[C@H]2CCCN2C(=O)[C@@H](CC(C)C)NC(=O)[C@@H](NC(=O)c2ncccc2O)C(C)OC(=O)[C@H](c2ccccc2)N(C)C1=O (stereo partly drawn) [NV I, neoviridogrisein I] ({Picolinoyl(3-OH)}-[Thr(3ξ)][dL][dP][Sar][NMeLeu(3ξ-Me)][Abu][NMePhg]; ester 1-C) | 0.4 µg/mL (≈ 0.456 µM) | > 25 µg/mL | 0.2 µg/mL (≈ 0.228 µM) | 0.4 µg/mL (≈ 0.456 µM) | 0.4 µg/mL (≈ 0.456 µM) | 0.4 µg/mL (≈ 0.456 µM) | 0.8 µg/mL (≈ 0.912 µM) | 0.8 µg/mL (≈ 0.912 µM) | 6.25 µg/mL (≈ 7.13 µM) | 6.25 µg/mL (≈ 7.13 µM) | 0.4 µg/mL (≈ 0.456 µM) | 0.8 µg/mL (≈ 0.912 µM) | 0.2 µg/mL (≈ 0.228 µM) | 6.25 µg/mL (≈ 7.13 µM) | 0.2 µg/mL (≈ 0.228 µM) | 0.2 µg/mL (≈ 0.228 µM) | 0.2 µg/mL (≈ 0.228 µM) | > 25 µg/mL | 0.2 µg/mL | 0.8 µg/mL (≈ 0.912 µM) | MIC (Staphylococcus sp.; Staphylococcus sp.): 0.8 µg/mL (≈ 0.912 µM); MIC (Candida albicans): > 25 µg/mL; MIC (Proteus vulgaris): > 25 µg/mL; solubility in organic solvents (Solubility in solvents): soluble; solubility in petroleum ether and hexane (Solubility in solvents): practically insoluble; solubility in water and ethyl ether (Solubility in solvents): hardly soluble; MIC [8]: 0.4 µg/mL (≈ 0.456 µM); MIC (Salmonella gallinanum): > 25 µg/mL
